Data: ChEMBL document CHEMBL3124915, “One-step semisynthesis of oleacein and the determination as a 5-lipoxygenase inhibitor” (J Nat Prod, 2014)
pIC50: −log10 of the molar value.

Assays:
[1] = target: T1, Polyunsaturated fatty acid 5-lipoxygenase (Homo sapiens) (UniProt P09917); assay: Inhibition of human recombinant 5-lipoxygenase expressed in Escherichia coli Bl21 (DE3) using arachidonic acid as substrate preincubated at 10 uM for 10 mins before substrate addition measured after 10 mins by HPLC analysis
T1 sequence (whole entry): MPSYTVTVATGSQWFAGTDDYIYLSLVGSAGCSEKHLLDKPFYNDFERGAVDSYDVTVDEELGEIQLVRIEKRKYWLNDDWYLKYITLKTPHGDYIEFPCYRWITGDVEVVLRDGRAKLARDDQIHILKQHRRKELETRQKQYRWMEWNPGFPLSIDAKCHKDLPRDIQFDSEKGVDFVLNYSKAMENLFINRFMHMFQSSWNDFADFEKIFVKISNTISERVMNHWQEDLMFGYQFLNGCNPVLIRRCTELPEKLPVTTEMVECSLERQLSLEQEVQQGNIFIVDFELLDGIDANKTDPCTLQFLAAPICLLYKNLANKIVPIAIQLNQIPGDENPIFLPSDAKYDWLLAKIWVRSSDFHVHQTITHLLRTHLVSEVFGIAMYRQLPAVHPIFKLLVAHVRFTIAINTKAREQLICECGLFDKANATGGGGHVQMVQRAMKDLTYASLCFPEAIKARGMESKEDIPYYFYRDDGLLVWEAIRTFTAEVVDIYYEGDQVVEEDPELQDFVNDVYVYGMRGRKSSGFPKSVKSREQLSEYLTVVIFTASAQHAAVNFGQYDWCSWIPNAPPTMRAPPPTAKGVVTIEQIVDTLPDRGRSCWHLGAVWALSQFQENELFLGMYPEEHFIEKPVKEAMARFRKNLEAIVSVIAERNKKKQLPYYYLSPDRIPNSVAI

[2] = target: T2, Polyunsaturated fatty acid 5-lipoxygenase (Homo sapiens, UniProt P09917); assay: Inhibition of human recombinant 5-lipoxygenase using arachidonic acid as substrate preincubated for 10 mins before substrate addition measured after 10 mins by HPLC analysis
T2 sequence (P09917 whole entry): T1 sequence (whole entry)

| SMILES | inhibition [1] [%] | pIC50 [2] |
| --- | --- | --- |
| OCCc1ccc(O)c(O)c1 [HYDROXYTYROSOL] | 48 | 4.89 |
| C/C=C(/C=O)[C@@H](CC=O)CC(=O)OCCc1ccc(O)c(O)c1 | 90 | 5.70 |
| C/C=C(/C=O)[C@@H](CC=O)CC(=O)OCCc1ccc(O)cc1 | 48 |  |
| C/C=C1/[C@H](O[C@@H]2O[C@H](CO)[C@@H](O)[C@H](O)[C@H]2O)OC=C(C(=O)OC)[C@H]1CC(=O)OCCc1ccc(O)c(O)c1 | 35 |  |
| OCCc1ccc(O)cc1 | 20 |  |
